Source: ChEMBL document CHEMBL3885861, “Open TG-GATES”

Species on record: Rattus norvegicus
Experiment: Open TG-GATES - Regimen: Daily Repeat
Format: toxicity, organism-based, Sprague-Dawley
Design: regimen Daily Repeat, gender Male, age 6 weeks
Conditions: in vivo, po, 45 mg/kg, route gavage, dose level High; for APTT / Bas / Eos / Fbg / Hb / Ht / Lym / MCH / MCHC / MCV / Mono / Neu / PT / Plat / RBC / Ret / WBC: tissue Blood; for KIDNEY_L / KIDNEY_R / KIDNEY_TOTAL: tissue Kidney; for LIVER: tissue Liver; for A/G / ALP / ALT / AST / BUN / CRE / Ca / Cl / DBIL / GLC / IP / K / LDH / Na / PL / RALB / TBIL / TC / TG / TP / gamma-GTP: tissue Plasma

CC(=N)S [THIOACETAMIDE] showed a TERMINAL_BW (72 h, time 3 day) of 211.8 g, an APTT (72 h, time 3 day) of 17.5 s and a Bas (72 h, time 3 day) of 0%. It also gave an Eos (72 h, time 3 day) of 1.4%, a Fbg (72 h, time 3 day) of 296 mg/dL and a Hb (72 h, time 3 day) of 14.4 g/dL. The Ht (72 h, time 3 day) was 44%, the Lym (72 h, time 3 day) was 75.4% and the MCH (72 h, time 3 day) was 20.3 pg. For the same molecule, the MCHC (72 h, time 3 day) was 32.8%, the MCV (72 h, time 3 day) was 62.1 fL and the Mono (72 h, time 3 day) was 9.2%. For the same molecule, the Neu (72 h, time 3 day) was 14%, the PT (72 h, time 3 day) was 12.4 s and the Plat (72 h, time 3 day) was 112.5 x10_4/uL. It also gave an RBC (72 h, time 3 day) of 711.2 x10_4/ul, a Ret (72 h, time 3 day) of 4.8% and a WBC (72 h, time 3 day) of 144.4 x10_2/uL. For the same molecule, the KIDNEY_L (72 h, time 3 day) was 1 g, the KIDNEY_R (72 h, time 3 day) was 1.1 g and the KIDNEY_TOTAL (72 h, time 3 day) was 2.1 g. For the same molecule, the LIVER (72 h, time 3 day) was 12.3 g, the A/G (72 h, time 3 day) was 1.8 and the ALP (72 h, time 3 day) was 923.2 IU/L. The ALT (72 h, time 3 day) was 47.8 IU/L, the AST (72 h, time 3 day) was 179.6 IU/L and the BUN (72 h, time 3 day) was 16.4 mg/dL. The CRE (72 h, time 3 day) was 0.6 mg/dL, the Ca (72 h, time 3 day) was 10.9 mg/dL and the Cl (72 h, time 3 day) was 104.2 meq/L. The DBIL (72 h, time 3 day) was 0.086 mg/dL, the GLC (72 h, time 3 day) was 174.8 mg/dL and the IP (72 h, time 3 day) was 8.1 mg/dL. For the same molecule, the K (72 h, time 3 day) was 5.1 meq/L, the LDH (72 h, time 3 day) was 338.2 IU/L and the Na (72 h, time 3 day) was 136 meq/L. For the same molecule, the PL (72 h, time 3 day) was 189.8 mg/dL, the RALB (72 h, time 3 day) was 3.7 g/dL and the TBIL (72 h, time 3 day) was 0.3 mg/dL. The TC (72 h, time 3 day) was 102 mg/dL, the TG (72 h, time 3 day) was 115.4 mg/dL and the TP (72 h, time 3 day) was 5.8 g/dL. It also gave a gamma-GTP (72 h, time 3 day) of 2.2 IU/L, a TERMINAL_BW ([…], time 7 day) of 217.5 g and a TERMINAL_BW ([…], time 14 day) of 249.4 g. The TERMINAL_BW ([…], time 28 day) was 277.2 g, the APTT ([…], time 7 day) was 16.5 s and the Bas ([…], time 7 day) was 0%. The Eos ([…], time 7 day) was 1%, the Fbg ([…], time 7 day) was 236 mg/dL and the Hb ([…], time 7 day) was 14.7 g/dL. For the same molecule, the Ht ([…], time 7 day) was 44%, the Lym ([…], time 7 day) was 81% and the MCH ([…], time 7 day) was 20.1 pg. The MCHC ([…], time 7 day) was 33.5%, the MCV ([…], time 7 day) was 60 fL and the Mono ([…], time 7 day) was 5.6%. It also gave a Neu ([…], time 7 day) of 12.6%, a PT ([…], time 7 day) of 14.3 s and a Plat ([…], time 7 day) of 159.2 x10_4/uL. It also gave an RBC ([…], time 7 day) of 734.2 x10_4/ul, a Ret ([…], time 7 day) of 2% and a WBC ([…], time 7 day) of 180.4 x10_2/uL. For the same molecule, the APTT ([…], time 14 day) was 16.7 s, the Bas ([…], time 14 day) was 0% and the Eos ([…], time 14 day) was 1%. The Fbg ([…], time 14 day) was 228.4 mg/dL, the Hb ([…], time 14 day) was 14.7 g/dL and the Ht ([…], time 14 day) was 43.7%. The Lym ([…], time 14 day) was 77.8%, the MCH ([…], time 14 day) was 19.7 pg and the MCHC ([…], time 14 day) was 33.5%. For the same molecule, the MCV ([…], time 14 day) was 58.9 fL, the Mono ([…], time 14 day) was 5.4% and the Neu ([…], time 14 day) was 16.2%. The PT ([…], time 14 day) was 14.4 s, the Plat ([…], time 14 day) was 123.1 x10_4/uL and the RBC ([…], time 14 day) was 742.6 x10_4/ul. It also gave a Ret ([…], time 14 day) of 2.7%, a WBC ([…], time 14 day) of 176.2 x10_2/uL and an APTT ([…], time 28 day) of 17.6 s. It also gave a Bas ([…], time 28 day) of 0%, an Eos ([…], time 28 day) of 0.6% and a Fbg ([…], time 28 day) of 218 mg/dL. The Hb ([…], time 28 day) was 15.6 g/dL, the Ht ([…], time 28 day) was 45.4% and the Lym ([…], time 28 day) was 71.6%. The MCH ([…], time 28 day) was 18.8 pg, the MCHC ([…], time 28 day) was 34.5% and the MCV ([…], time 28 day) was 54.3 fL. It also gave a Mono ([…], time 28 day) of 6.6%, a Neu ([…], time 28 day) of 21% and a PT ([…], time 28 day) of 14 s. It also gave a Plat ([…], time 28 day) of 110.9 x10_4/uL, an RBC ([…], time 28 day) of 835.6 x10_4/ul and a Ret ([…], time 28 day) of 2.6%. It also gave a WBC ([…], time 28 day) of 183.8 x10_2/uL, a KIDNEY_L ([…], time 7 day) of 1 g and a KIDNEY_R ([…], time 7 day) of 1 g. For the same molecule, the KIDNEY_TOTAL ([…], time 7 day) was 2 g, the KIDNEY_L ([…], time 14 day) was 1.2 g and the KIDNEY_R ([…], time 14 day) was 1.2 g. For the same molecule, the KIDNEY_TOTAL ([…], time 14 day) was 2.3 g, the KIDNEY_L ([…], time 28 day) was 1.2 g and the KIDNEY_R ([…], time 28 day) was 1.2 g. It also gave a KIDNEY_TOTAL ([…], time 28 day) of 2.4 g, an LIVER ([…], time 7 day) of 11.1 g and an LIVER ([…], time 14 day) of 12.4 g. The LIVER ([…], time 28 day) was 14.3 g, the A/G ([…], time 7 day) was 1.9 and the ALP ([…], time 7 day) was 946.4 IU/L. It also gave an ALT ([…], time 7 day) of 23.4 IU/L, an AST ([…], time 7 day) of 47 IU/L and a BUN ([…], time 7 day) of 18.4 mg/dL. The CRE ([…], time 7 day) was 0.5 mg/dL, the Ca ([…], time 7 day) was 10.4 mg/dL and the Cl ([…], time 7 day) was 105.4 meq/L. It also gave a DBIL ([…], time 7 day) of 0.026 mg/dL, a GLC ([…], time 7 day) of 164.2 mg/dL and an IP ([…], time 7 day) of 7.3 mg/dL. For the same molecule, the K ([…], time 7 day) was 4.8 meq/L, the LDH ([…], time 7 day) was 192.8 IU/L and the Na ([…], time 7 day) was 136 meq/L. It also gave a PL ([…], time 7 day) of 137 mg/dL, an RALB ([…], time 7 day) of 3.6 g/dL and a TBIL ([…], time 7 day) of 0.2 mg/dL. The TC ([…], time 7 day) was 69.8 mg/dL, the TG ([…], time 7 day) was 57.2 mg/dL and the TP ([…], time 7 day) was 5.5 g/dL. For the same molecule, the gamma-GTP ([…], time 7 day) was 2 IU/L, the A/G ([…], time 14 day) was 2.3 and the ALP ([…], time 14 day) was 1052 IU/L. For the same molecule, the ALT ([…], time 14 day) was 26 IU/L, the AST ([…], time 14 day) was 67 IU/L and the BUN ([…], time 14 day) was 18.6 mg/dL. It also gave a CRE ([…], time 14 day) of 0.6 mg/dL, a Ca ([…], time 14 day) of 10.2 mg/dL and a Cl ([…], time 14 day) of 105 meq/L. The DBIL ([…], time 14 day) was 0.08 mg/dL, the GLC ([…], time 14 day) was 165.8 mg/dL and the IP ([…], time 14 day) was 7.3 mg/dL. For the same molecule, the K ([…], time 14 day) was 4.3 meq/L, the LDH ([…], time 14 day) was 161 IU/L and the Na ([…], time 14 day) was 135 meq/L. It also gave a PL ([…], time 14 day) of 154 mg/dL, an RALB ([…], time 14 day) of 3.7 g/dL and a TBIL ([…], time 14 day) of 0.3 mg/dL. The TC ([…], time 14 day) was 74.4 mg/dL, the TG ([…], time 14 day) was 83 mg/dL and the TP ([…], time 14 day) was 5.3 g/dL. The gamma-GTP ([…], time 14 day) was 2.4 IU/L, the A/G ([…], time 28 day) was 1.9 and the ALP ([…], time 28 day) was 1032 IU/L. It also gave an ALT ([…], time 28 day) of 31.2 IU/L, an AST ([…], time 28 day) of 76 IU/L and a BUN ([…], time 28 day) of 20.8 mg/dL. For the same molecule, the CRE ([…], time 28 day) was 0.6 mg/dL, the Ca ([…], time 28 day) was 9.9 mg/dL and the Cl ([…], time 28 day) was 106 meq/L. The DBIL ([…], time 28 day) was 0.2 mg/dL, the GLC ([…], time 28 day) was 148.8 mg/dL and the IP ([…], time 28 day) was 6.3 mg/dL. The K ([…], time 28 day) was 4.4 meq/L, the LDH ([…], time 28 day) was 195.4 IU/L and the Na ([…], time 28 day) was 134 meq/L. The PL ([…], time 28 day) was 138.4 mg/dL, the RALB ([…], time 28 day) was 3.5 g/dL and the TBIL ([…], time 28 day) was 0.3 mg/dL. For the same molecule, the TC ([…], time 28 day) was 61.4 mg/dL, the TG ([…], time 28 day) was 20.8 mg/dL and the TP ([…], time 28 day) was 5.4 g/dL. It also gave a gamma-GTP ([…], time 28 day) of 6 IU/L.
